Source: article PMC4738305, “Metabolism and Disposition of Aditoprim in Swine, Broilers, Carp and Rats” (Scientific Reports, 2016)
Like-named read-outs stand apart in the source and are kept apart here.

How the values were obtained:
[1] = Metabolite profiling of ADP in excreta, plasma and bile (LC-v.ARC/MS-IT-TOF); type: in vivo, carp; conditions: for percentage of the individual metabolite compared with the total concentration of ADP-related: within 6 h after dosing; for Average percentage of ADP and its metabolites in total dose: Carp, Excreta, single oral 5 mg/kg b.w. ^3H-ADP
Protocol: Animals (4 swine, 6 broilers, 6 carp, and 3 male and 3 female rats) were housed individually in clean, suspended wire-mesh metabolism cages, designed to separate the urine from the feces (carp were raised in individual aquaria). Each animal was weighed and assigned with a permanent identification number. A single dose of ^3 H-ADP (5 mg/kg b. w., 0.1 Ci/g) was administered via the oral gavage. Excreta were collected on ice at the pre-administration, in the period of 6, 12, and 24 h on day 1 d, and afterwards, intermittently in the period of 24 h up to 14 d. The piscine excreta were collected by changing and collecting raised water. The total volume or weight of each sample was measured and homogenized. The total radioactivity levels were determined through LSC for the recovery calculations. After the preparation, the samples were analyzed through LC/MS-IT-TOF with v. ARC radiometric detection (XenoBioticLaboratories, Inc.) for metabolite profiling. The pretreatment samples were used as controls to determine the background radioactivity or the endogenous nondrug-related ions observed within respective matrices or their extracts.
(§1) A total of 36 animals from each species (swine n = 24) were randomly assigned to six equal treatment groups and administered a single daily dose of ^3 H-ADP at 5 mg/kg b. w. (0.1 Ci/g) through oral gavage for 7 consecutive days. All the animals were housed on the basis of their group in the cages or aquaria throughout the whole study period. A group of animals was slaughtered through exsanguination under diethyl ether inhalation of anesthesia in the period of 6 h, 1, 3, 7, 14, and 21 d after the administration. The blood samples were immediately collected into the heparinized tubes and was centrifuged at 1920 × g at 4 °C for 10 min to obtain the plasma. The tissues from the heart, liver, spleen, lung, kidney, craw (broilers), stomach, intestine, fat, skin, muscle, thymus, pancreas, bile, bladder, hair (scale for carp), genital gland, adrenal glands, swim bladder (carp), brain, lymph, and bursa (broilers) were carefully excised and collected. The tissues were thoroughly rinsed with the deionized water to remove the residuary blood, blotted to dryness, and finally to perform the homogenization. In order to avoid cross-contamination the dissecting instruments were washed during the tissue procurements. The blank tissues were collected in order to provide control matrices. The total radioactivity levels in each sample were determined through LSC. The samples extracted from the plasma, bile, and tissues of the liver, kidney, muscle, and fat/skin were analyzed through LC/MS-IT-TOF and v. ARC radiometric detection for metabolite profiling. The blank samples were used as control to determine the background radioactivity or the endogenous nondrug-related ions observed within respective matrices or their extracts.
For metabolite profiling, the urine and feces samples from each animals were pooled proportionally to the excreted amount in each sampling period from 0 to 6 h, 6 h to 1 d, 1 to 3 d, 3 to 7 d, and 7 to 14 d post-dose, respectively. All samples were fully homogenized before the process. The pre-dose and blank samples served as the controls for determining the background radioactivity or the endogenous, nondrug-related ions observed within respective matrices or their extracts.
The urine samples (plasma, bile and raised water for carp) was subjected to solid-phase extraction with an Oasis MCX cartridge (3 mL, […]; Waters, Milford, MA, USA) for metabolite purification and enrichment. The pH value was adjusted to 2.8–3.2 by adding 1 M hydrochloric acid (HCl), and 2 mL of the sample was transferred into MCX cartridge, which was preconditioned with 3 mL of methanol and 3 mL of 0.1 mol/L HCl solution. The cartridge was washed with 3 mL of 0.1 mol/L HCl solution and was eluted with 5 mL of NH4OH/methanol (4:96, v:v). The effluent was concentrated to dryness under a stream of nitrogen at 40 °C. […]

[2] = Concentration and elimination of ADP and its metabolites in liver, kidney, muscle, fat/skin after oral ^3H-ADP for 7 d; type: in vivo, carp; conditions: for concentration at 0.25 d / concentration at 1 d / concentration at 3 d / concentration at 7 d / concentration at 14 d / concentration at 21 d: carp, oral; for half-life: po
Protocol: as §1
The feces and tissues (2 g) were diluted with a mixture of methanol and chloroform (1:3, v:v; 2 mL/g homogenate). This procedure was carried out in a fume hood for the safety aspects. The pH value was adjusted to 9.0 with NH4OH. The mixture was vortexed and sonicated for 5 min and 10 min, respectively, and finally the samples were centrifuged at 7690 × g for 10 min. The supernatant was aspirated and then transferred into a new centrifuge tube. The obtained pellet was again subjected to the same process of vortex, ultrasonication, extraction, and centrifugation. The combined supernatant was concentrated under a stream of nitrogen in a water bath at 40 °C. The residue was reconstituted with 0.3 mL of methanol–water (1:9, v:v) before the injection into the LC-v. ARC/MS-IT-TOF system for analysis.
ADP and its metabolites in the prepared samples were determined with a v. ARC radiometric detector and a hybrid IT/TOF mass spectrometer connected to the HPLC system (Shimadzu Corp., Kyoto, Japan). The LC system was equipped with a solvent delivery pump (LC-20AD), an auto-sampler (SIL-20AC), a degasser (DGU-20 A 3), a photodiode array detector (SPD-M20A), a communication base module (CBM-20 A), and a column oven (CTO-20AC). The chromatographic separation was achieved by using an Agilent extend-C18 column (2.1 mm × 150 mm, 5 μm) with a gradient mobile phase of A (0.01% ammonia and 5 mM ammonium acetate in water) and B (methanol) at a flow rate of 0.2 mL/min. The column temperature was maintained at 35 °C. Various HPLC methods were performed because of the large number of different metabolites to be analyzed. For the porcine sample, method 1 started at 5% B and increased to 20% B over 35 min, then to 55% B by 60 min, followed by re-equilibration for another 10 min. For the remaining samples, method 2 started at 10% B and increased to 60% B over 30 min, subsequently was maintained at 60% B for an additional 10 min, and then changed to 90% B over 2 min and maintained for 2 min. Afterwards, a re-equilibration step (decreased to 10% B over 1 min and maintained at 10% B for additional 9 min) was followed. For each matrix, more than 98% of the radioactivity injected into the column was eluted during the running time of the gradient program. […]

[3] = carp kidney, after 5 mg/kg b. w. for 7 days, read-out: t1/2 of the individual compound (converted)
[4] = carp liver, after 5 mg/kg b. w. for 7 days, read-out: t1/2 of the individual compound (converted)
[5] = carp muscle, after 5 mg/kg b. w. for 7 days, read-out: t1/2 of the individual compound (converted)
[6] = carp skin, after 5 mg/kg b. w. for 7 days, read-out: t1/2 of the individual compound (converted)
[7] = tissues (liver, kidney, muscle, fat/skin), 5 mg/kg, carp tissues, read-out: t1/2 of the individual compound, range over tissues

percentage of the individual metabolite compared with the total concentration of ADP-related ([1]; Carp Bile) [%] | percentage of the individual metabolite compared with the total concentration of ADP-related ([1]; Carp Extra (excreta)) [%] | percentage of the individual metabolite compared with the total concentration of ADP-related ([1]; Carp Plasma) [%] | Average percentage of ADP and its metabolites in total dose [1] [%] | concentration at 0.25 d ([2]; kidney, 5 mg/kg b.w.) [ng/g] | concentration at 1 d ([2]; kidney, 5 mg/kg b.w.) [ng/g] | concentration at 3 d ([2]; kidney, 5 mg/kg b.w.) [ng/g] | concentration at 7 d ([2]; kidney, 5 mg/kg b.w.) [ng/g] | concentration at 0.25 d ([2]; liver, 5 mg/kg b. w.) [ng/g] | concentration at 1 d ([2]; liver, 5 mg/kg b. w.) [ng/g] | concentration at 3 d ([2]; liver, 5 mg/kg b. w.) [ng/g] | concentration at 7 d ([2]; liver, 5 mg/kg b. w.) [ng/g] | concentration at 0.25 d ([2]; muscle, 5 mg/kg b.w.) [ng/g] | concentration at 1 d ([2]; muscle, 5 mg/kg b.w.) [ng/g] | concentration at 3 d ([2]; muscle, 5 mg/kg b.w.) [ng/g] | concentration at 0.25 d ([2]; skin, 5 mg/kg b. w.) [ng/g] | concentration at 1 d ([2]; skin, 5 mg/kg b. w.) [ng/g] | concentration at 3 d ([2]; skin, 5 mg/kg b. w.) [ng/g] | concentration at 7 d ([2]; skin, 5 mg/kg b. w.) [ng/g] | half-life [2, 3] [h] | Structure (SMILES) | further results
64.7 | 87.5 | 61.7 | 82.4 | 38900 ± 8000 | 6470 ± 1250 | 3010 ± 550 | 1190 ± 80 | 13200 ± 3700 | 5750 ± 950 | 2370 ± 470 | 390 ± 100 | 1960 ± 530 | 1690 ± 410 | 870 ± 180 | 3040 ± 520 | 2320 ± 670 | 1330 ± 150 | 800 ± 160 | 89.3 | COc1cc(Cc2cnc(N)nc2N)cc(OC)c1N(C)C [A0, 2,4-Diamino-5-[4-(dimethylamino)-3,5-dimethoxybenzyl] pyrimidine] | level of intact ADP ([1]; carp, single oral 5 mg/kg b. w. (Table S5)): 82.4 % of the oral dose; share of the sample radioactivity in the detected tissues ([2]; carp liver, kidney, muscle, skin, over the sampling times): more than 42%; concentration at 14 d ([2]; kidney, 5 mg/kg b.w.): 680 ± 80 ng/g; concentration at 21 d ([2]; kidney, 5 mg/kg b.w.): 90 ± 20 ng/g; concentration at 14 d ([2]; liver, 5 mg/kg b. w.): 260 ± 40 ng/g; concentration at 21 d ([2]; liver, 5 mg/kg b. w.): 90 ± 10 ng/g; concentration at 7 d ([2]; muscle, 5 mg/kg b.w.): 410 ± 90 ng/g; concentration at 14 d ([2]; muscle, 5 mg/kg b.w.): 60 ± 10 ng/g; concentration at 14 d ([2]; skin, 5 mg/kg b. w.): 60 ± 10 ng/g; half-life [2, 4]: 159 h; half-life [2, 5]: 68.9 h; half-life [2, 6]: 57.6 h; half-life [2, 7]: 57.6 to 159 h
25.5 | 9.9 | 23.9 | 8.9 | 7990 ± 1650 | 1730 ± 330 | 820 ± 150 | 380 ± 30 | 1930 ± 250 | 770 ± 130 | 160 ± 30 | 20 | 300 ± 80 | 270 ± 70 | 100 ± 20 | 550 ± 90 | 450 ± 130 | 140 ± 20 | 50 ± 10 | 67.4 | CNc1c(OC)cc(Cc2cnc(N)nc2N)cc1OC [A1, N-monodesmethyl-ADP] | half-life [2, 4]: 26.2 h; half-life [2, 5]: 49.2 h; half-life [2, 6]: 47.8 h; half-life [2, 7]: 26.2 to 67.4 h
9.8 | 2.5 | 14.4 | 2.9 | 780 ± 160 | 60 ± 10 | – | – | 440 ± 60 | 240 ± 40 | – | – | – | – | – | 70 ± 10 | 50 ± 10 | – | – | – | COc1cc(Cc2cnc(N)nc2N)cc(OC)c1N [A2, N-didesmethyl-ADP] | –
